Experimental data published in patent US20260347330A1, “N-METHYL-D-ASPARTATE RECEPTOR (NMDAR) ANTAGONISTS AND USES THEREOF” (Bexson Biomedical, Inc., priority 2022, published 2026).

Molecular target: NMDAR
Assay: NMDA receptor [3H]-MK-801 competition radioligand binding in rat forebrain
Conditions: for NMDAR binding affinity pKi (mean ± SEM): [3H]-MK-801 1 nM competition, 1 mM glutamate, 0.1 mM glycine, pH 7.4, 2 h ambient, N = 1-4; for % inhibition of specific [3H]-MK-801 binding: at 10,000 nM
Method: Rat forebrains from 7-8 week old Sprague-Dawley rats (BioChemed, USA) were homogenized in a buffer containing 10 mM HEPES and 1 mM EDTA (pH 7.4) using a mechanical homogenizer (Janke-Kunkel Ultra-Turrax T25). A 10 mL volume was used per brain for all steps involving suspension of the brain homogenate tissue. The brain homogenate was then centrifuged (15 minutes at 20,000 RPM and 4 ° C). The supernatant was carefully poured off and the pellet was resuspended in fresh 10 mM HEPES and 1 mM EDTA containing buffer. This process was repeated 5 times. Following the 5th centrifugation, the buffer was replaced with a buffer containing 10 mM HEPES (pH 7.4). The homogenate was then incubated in a water bath at 37 ° C in the dark (covered with foil). Centrifugation was then repeated 3 additional times and after resuspending in the HEPES buffer, the final homogenate was aliquoted and stored at −80 ° C until use. Protein concentration of the homogenate was determined by utilizing the Bradford method using Coomassie protein assay reagent (Sigma, USA) with Bovine Serum albumin (Sigma, USA) as a standard.
At the time of the experiment, the homogenate was diluted to a final concentration of […] in 10 mM HEPES buffer, 1 mM glutamate, and 0.1 mM glycine (pH 7.4) and combined with 1 nM (+)-[3H]-MK-801 (Perkin Elmer NET972250UC), unlabeled competitor compounds at varying concentrations, or 30 uM MK-801 to determine non-specific binding, in a total volume of 1 mL in a 96 well plate. The protein homogenate is always added to the wells last. The plates were covered with aluminum foil, and placed on a mechanical shaker (250 RPM) for 2 h at ambient temperature ([…]). After 2 h, the homogenate was collected by vacuum filtration using a Unifilter-96 Cell Harvester (Perkin Elmer) over presoaked UniFilter-96 GF/C P Microplates (Perkin Elmer) and filters were washed with room temperature 10 mM HEPES buffer (pH 7.4) (3×1 mL). The filter plates were dried overnight in a fume hood. The next day, the bound tritium was measured via liquid scintillation counting with […] MicroScint-O (Perkin Elmer) added per well, using a MicroBeta2 Plate Reader with 6-detectors scintillation counter (Perkin Elmer) at 55% efficiency. IC50 value estimates were determined in GraphPad Prism 9.3.1 using non-linear regression (single site fit) with log-concentration plotted against percent specific binding. Ki values were calculated using the equation of Cheng and Prusoff. […] Experiments were performed in duplicate. N=1-4 per compound.

Row | Compound | NMDAR binding affinity pKi (mean ± SEM) | % inhibition of specific [3H]-MK-801 binding [%]
1 | C=CC(N)(c1ccccc1)C1CCCC1 (centres unmarked) [Compound 10, 1-cyclopentyl-1-phenylprop-2-en-1-amine] | 6.05 | –
2 | COc1cccc(C(C)(N)C2CCCC2)c1 (centres unmarked) [Compound 13, 1-cyclopentyl-1-(3-methoxyphenyl)ethan-1-amine] | 6.82 ± 0.039 | –
3 | CCCC(N)(c1ccccc1)C1CCCC1 (centres unmarked) [Compound 14, 1-cyclopentyl-1-phenylbutan-1-amine] | 5.94 ± 0.166 | –
4 | NC(c1ccccc1)C1CCCC1 (centres unmarked) [Compound 27, Cyclopentyl(phenyl)methanamine] | < 5.00 | 32.4
5 | C=CCC(N)c1ccccc1 (centres unmarked) [Compound 30, 1-phenylbut-3-en-1-amine] | < 5.00 | 43.9
6 | CCCNC(c1ccccc1)C1CCCCC1 (centres unmarked) [Compound 31, N-(cyclohexyl(phenyl)methyl)propan-1-amine] | 5.76 | –
7 | CCNC(c1ccccc1)C1CCCC1 (centres unmarked) [Compound 32, N-(cyclopentyl(phenyl)methyl)ethanamine] | 5.85 | –
8 | CC(N)(c1ccccc1)C1CCC1 (centres unmarked) [Compound 47, 1-cyclobutyl-1-phenylethan-1-amine] | 6.75 ± 0.016 | –
9 | CC(N)(c1ccc(F)cc1)C1CCCC1 (centres unmarked) [Compound 48, 1-cyclopentyl-1-(4-fluorophenyl)ethan-1-amine] | 6.96 ± 0.019 | –
10 | COc1ccc(C(C)(N)C2CCCC2)cc1 (centres unmarked) [Compound 49, 1-cyclopentyl-1-(4-methoxyphenyl)ethan-1-amine] | 6.49 ± 0.0039 | –
11 | CC(N)(c1cccc(C(F)(F)F)c1)C1CCCC1 (centres unmarked) [Compound 50, 1-cyclopentyl-1-(3-(trifluoromethyl)phenyl)ethan-1-amine] | 5.86 ± 0.11 | –
12 | CC(N)(c1cc2ccccc2s1)C1CCCC1 (centres unmarked) [Compound 51, 1-(benzo[b]thiophen-2-yl)-1-cyclopentylethan-1-amine] | < 5.00 | 34.6
13 | C#CC(N)(c1ccccc1)C1CCCC1 (centres unmarked) [Compound 53, 1-cyclopentyl-1-phenylprop-2-yn-1-amine] | < 5.00 | 45.0
